The results in this text go back to US20190183939A1, “CELL THERAPY USING MIDBRAIN-TYPE NEURAL STEM CELLS TREATED WITH VITAMIN C” (INDUSTRY-UNIVERSITY COOPERATION FOUNDATION HANYANG …, priority 2017, published 2019).

The test system of assay [1] is human TH promoter regions. Briefly: DIP-qPCR/ChIP-qPCR on human TH promoter. In kind it is cell-based. From the text:
(§1) Foxa2 and Nurr1 binding sites were identified using the Jaspar database (http://jaspar.genereg.net/) using an 80% score threshold. Predicted Foxa2 and Nurr1 binding sites were coupled with phylogenetic footprinting to eliminate spurious predictions with specified position weight matrix (PWM) settings, as described in the following reference. [Sandelin, A., and Wasserman, W. W. (2004). Constrained binding site diversity within families of transcription factors enhances pattern discovery bioinformatics. Journal of molecular biology 338, 207-215] (Table 2). ChIP and DIP assays were carried out as described in the following reference. [Prolonged membrane depolarization enhances midbrain dopamine neuron differentiation via epigenetic histone modifications. Stem Cells 29, 1861-1873]. Briefly, chromatin or genomic DNA was sheared to an average of 200-500 bp in length using a sonication Bioruptor (BMS, Seoul, Korea) and immunoprecipitated using the antibodies listed in Table 1. Immunoprecipitated DNA fragments were collected using magnetic beads (Invitrogen), purified, and subjected to real-time PCR using the primers listed in Table 3. The comparative cycle threshold method was used to quantify the results. Data were normalized to the input DNA.

The test system of the next assay is VM-NSC cultures. Briefly: Marker expression by immunocytochemistry and real-time PCR. In kind it is cell-based, rat. The method, then: (§2) Cultured cells and cryosectioned brain slices were fixed with 4% paraformaldehyde (PFA), and blocked for 40 minutes in blocking solution (Blocking solution: 1% BSA+0.3% Triton X-100). For 5hmC and 5mC staining, the fixed cells were incubated with 2 N HCl for 20 minutes before the blocking reaction. The samples were incubated overnight at 4° C. in the blocking solution containing the primary antibodies listed in Supplemental Table 1. Secondary antibodies tagged with Alexa 488 (1:200, Invitrogen, Carlsbad, Calif.) and Cy3 (1:200, Jackson Immunoresearch Laboratories, West Grove, Pa.) were applied. Stained samples were mounted in Vectashield medium containing 40,6-diamidino-2-phenylindole (DAPI; Vector Laboratories, West Grove, Pa.) and analysed under an epifluorescence (Leica, Wetzlar, Germany) or confocal microscope (Leica TSP SP5).
(§3) Immunostained cells were counted in 10-20 random areas of each culture coverslip using an eyepiece grid at a magnification of 200×. Data are expressed as the mean±SEM of three to eight independent cultures. For every figure, statistical tests are justified as appropriate. Statistical comparisons were made using Student's t-test (unpaired) or one-way ANOVA followed by Tukey's post hoc analysis using SPSS® Statistics 21; IBM Inc. The relevant n, P-values, and statistical analysis methods are indicated in each figure legend.
For orientation: In qPCR the cycle at which signal appears reflects the starting amount.

The test system of a further assay is Nurr1 and TH promoters. The assay is described as follows: DIP-qPCR and ChIP-qPCR on Nurr1 and TH promoters. In kind it is cell-based, rat.
Excerpt: as §1

Assay [2] deals with cultures differentiated from VM-NSCs. Briefly: Differentiated cell survival/death, DNA damage and resistance against toxins. In kind it is cell-based, rat. The method, then: The cell growth profile during NSC expansion with several cell passages was generated by counting the number of viable cells at the end of each passage. Cell expansion of each NSC passage was further estimated by the population doubling level (PDL, the level at which the number of cells is doubled), which was determined by log(N/NO)/log 2 (where N is the number of cells at the end of each passage; NO is the number of cells plated initially (1×10^5 cells/cm^2)). DA neuronal cell survival in the absence or presence of toxic insults (500-1000 uM of H2O2 or 6-OHDA) was determined by counting viable TH^+ cells after staining. General cell death and DNA damage were estimated by ethidium heterodimer 1 (EthD1) (Molecular Probes) and γH2AX staining, respectively.

Assay [3] has as its system Foxa2 and Lmx1a promoters. Briefly: DIP-qPCR and ChIP-qPCR on Foxa2 and Lmx1a promoters. In kind it is cell-based, rat.
Excerpt: as §1

Assay [4] has as its system TH+ DA neurons differentiated from VM-NSCs. The assay is described as follows: Co-expression of midbrain-specific markers in differentiated TH+ DA neurons. In kind it is cell-based, rat. Particulars: P1 cultures treated with VC during expansion, D6. The method, then:
as §2, §3

In a further assay the test system is TET. Briefly: Tet enzyme activity in nuclear fraction. It is filed as biochemical, rat. Particulars: VC 200 μM, 4 days of proliferation, D0. How it is done:
TET and JMJD3 activities were measured using Epigenase™ 5mC hydroxylase TET Activity/Inhibition Assay Kit and Epigenase™ JMJD3/UTX Demethylase Activity/Inhibition Assay Kit (Epigentek, Farmingdale, N.Y.), respectively. Briefly, cells from two 10 cm-dishes were harvested after 4 days of proliferation with or without VC (200 μM) treatment. Nuclear fractions were obtained from the cells using the EpiQuik nuclear extraction kit (Epigentek), and subjected to enzyme activity analyses.

For assay [5], the system named is TH+ DA neurons differentiated from VM-NSCs. Briefly: Morphologic and functional maturation of DA neurons. The note with it: VC during expansion. It is filed as cell-based, rat. How it is done: To estimate morphological maturation, total fiber lengths emanating from TH+DA neuronal cells were measured. The pre-synaptic activity of DA neurons was determined by measuring the levels of DA neurotransmitter released in the differentiated VM-NSC cultures. Media incubated for 2 days (differentiation day 13-15) were collected and used in the DA level determinations using an ELISA kit (BA E-5300, LDN). In addition, DA release evoked by membrane depolarization was estimated by incubating the cultures (at differentiation day 15) in fresh N2 media in the presence or absence of 56 mM KCl for 30 min. The evoked DA release was calculated by subtracting the DA release without KCl from the DA level with KCl.

Regarding `O=C1O[C@H]([C@@H](O)CO)C(O)=C1O` [VC, L-ascorbic acid], in assay [1], the “H3K9m3/H3K27m3 levels in human TH promoter regions” value is recorded as “undetectable”. Further, the “levels of 5hmC at human TH promoter regions” value in assay [1] (two consensus Nurr1 binding sites, D6) was “enhanced”. Besides, the “percentage of cells expressing Foxa2 and Lmx1a” value with VM-NSC cultures (D0, VC during expansion) is “enhanced”. Further, the “percentage of Nurr1+ cells” value in the assay with VM-NSC cultures (D2, VC during proliferating NSC stage) is “greater”. In the assay with VM-NSC cultures (VC during proliferating VM-NSC stage), the “mRNA expression of GFAP and GFAP+ astrocyte yields” value is on record as “significantly enhanced”. In the assay on VM-NSC cultures (VC during proliferation), the “mRNA expression levels of TPH2 and GAD67” value is reported as “no significant alteration”. The “expression of Nestin, Sox2 and Otx2 markers” value in the assay with VM-NSC cultures (proliferating VM-NSC cultures) was “not altered”. In the assay on VM-NSC cultures (real-time PCR, D0), the “mRNA levels of Foxa2 and Lmx1a” value is “enhanced”. For the same molecule, in the assay with Nurr1 and TH promoters (ChIP-qPCR, D6), the “Nurr1 protein abundance at TH promoter” value is recorded as “significantly greater”. The “Foxa2 recruitment to Nurr1 promoter regions” value in the assay on Nurr1 and TH promoters (D2, culture pre-treated with VC) is reported as “more abundantly recruited”. Besides, in the assay on Nurr1 and TH promoters (from D0, compared to untreated controls), the “5hmC/5mC and H3K27m3/H3K9m3 at Nurr1 promoter regions” value is “increased 5hmC levels with 5mC decreases and the decrease of H3K27m3/H3K9m3”. The “DA neurons died after exposure to H2O2 or 6-OHDA” value in assay [2] (500 and 1000 μM for 8 hours at D8, VC during expansion) is “remarkably lower proportions”. In assay [2] (D12 as printed, VC during expansion), the “γH2AX foci, % cells with >3 foci” value is 24.3%. Further, the “cell death (EthD-1+ dead cell counting)” value in assay [2] (differentiation D8, VC during NSC expansion and passaging) is “considerably reduced”. In addition, the “binding of Tet1, Jmjd3 and Jmjd2 proteins to Foxa2 and Lmx1a promoter regions” value in assay [3] (ChIP-qPCR, D0) is recorded as “increased binding”. For the same molecule, the “5mC levels in Foxa2 promoter regions” value in assay [3] (MeDIP-qPCR, VC-treated NSCs) is “reduced”. Moreover, in assay [3] (hMeDIP-qPCR, VC-treated NSCs), the “5hmC in Foxa2 promoter regions” value is recorded as “more abundant”. Further, in assay [4], the “TH+ DA neurons expressing Foxa2” value is 98%, the “TH+ DA neurons expressing Lmx1a” value is on record as 91% and the “TH+ DA neurons expressing Nurr1” value is reported as 93%. The “Tet enzyme activity in nuclear fractions” value in the assay on TET is on record as “greatly enhanced”. Also, the “total fiber lengths per TH+ DA neuron” value in assay [5] (D15) stood at 164 um. In addition, the “presynaptic DA neuronal function measured by DA release” value in assay [5] (medium 48 hr (D13-15) and KCl evoked 30 min) is on record as “greater”. Further, the “synapsin+ puncta in TH+ DA neuron neurites” value in assay [5] (vs untreated control) is given as “more abundantly localized”.
